Results from article PMC6401105, “Dual role of the Anopheles coluzzii Venus Kinase Receptor in both larval growth and immunity” (Scientific Reports, 2019).

Columns and labels:
[1] = target: T1, Anopheles VKR (AgVKR; VKR^WT) (Anopheles gambiae, UniProt C5H7S1); assay: GVBD of Xenopus oocytes expressing VKR; anti-phosphotyrosine Western blot; type: cell-based; settings: agonist; VFT domain; ND96 medium pH 7.4, 19 °C, 18 h; not an EC50
T1 sequence (C5H7S1 26-1465): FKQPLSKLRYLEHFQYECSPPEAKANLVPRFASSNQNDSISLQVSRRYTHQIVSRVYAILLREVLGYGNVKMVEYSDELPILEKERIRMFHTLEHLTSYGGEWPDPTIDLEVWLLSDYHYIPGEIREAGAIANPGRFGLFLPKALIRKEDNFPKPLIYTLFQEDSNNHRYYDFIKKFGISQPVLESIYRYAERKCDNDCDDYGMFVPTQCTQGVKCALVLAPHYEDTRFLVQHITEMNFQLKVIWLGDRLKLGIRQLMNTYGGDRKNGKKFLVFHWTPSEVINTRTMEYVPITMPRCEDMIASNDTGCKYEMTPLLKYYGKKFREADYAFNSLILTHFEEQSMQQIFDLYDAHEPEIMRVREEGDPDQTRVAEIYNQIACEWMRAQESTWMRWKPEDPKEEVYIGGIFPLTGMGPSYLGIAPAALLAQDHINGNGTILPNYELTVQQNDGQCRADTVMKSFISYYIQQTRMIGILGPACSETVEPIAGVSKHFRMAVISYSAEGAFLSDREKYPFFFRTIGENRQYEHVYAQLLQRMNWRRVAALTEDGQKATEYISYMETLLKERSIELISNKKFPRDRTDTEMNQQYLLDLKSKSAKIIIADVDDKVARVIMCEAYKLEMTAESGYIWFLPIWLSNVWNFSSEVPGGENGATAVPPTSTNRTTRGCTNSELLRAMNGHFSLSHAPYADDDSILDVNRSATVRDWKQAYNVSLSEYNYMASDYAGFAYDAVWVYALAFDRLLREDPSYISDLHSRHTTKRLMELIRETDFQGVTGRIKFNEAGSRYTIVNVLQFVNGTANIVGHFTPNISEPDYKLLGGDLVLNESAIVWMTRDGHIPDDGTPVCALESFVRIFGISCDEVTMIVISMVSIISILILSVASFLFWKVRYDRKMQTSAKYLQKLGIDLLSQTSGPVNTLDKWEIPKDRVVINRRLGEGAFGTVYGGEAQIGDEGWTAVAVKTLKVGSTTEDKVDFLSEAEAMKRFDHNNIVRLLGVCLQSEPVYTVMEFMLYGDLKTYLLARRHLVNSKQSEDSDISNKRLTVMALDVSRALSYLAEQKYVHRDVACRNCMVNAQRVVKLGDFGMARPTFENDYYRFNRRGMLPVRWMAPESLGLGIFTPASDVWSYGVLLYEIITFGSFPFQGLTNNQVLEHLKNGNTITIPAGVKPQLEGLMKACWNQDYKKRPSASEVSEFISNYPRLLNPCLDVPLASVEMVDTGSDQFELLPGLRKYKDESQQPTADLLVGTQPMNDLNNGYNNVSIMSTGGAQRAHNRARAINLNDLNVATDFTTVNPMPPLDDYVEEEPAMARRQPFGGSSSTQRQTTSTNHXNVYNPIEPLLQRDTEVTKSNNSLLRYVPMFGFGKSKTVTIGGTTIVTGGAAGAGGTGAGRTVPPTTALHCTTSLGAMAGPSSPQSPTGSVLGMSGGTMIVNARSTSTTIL

[2] = target: T1, Anopheles VKR (AgVKR; VKR^WT); assay: GVBD of Xenopus oocytes expressing VKR; type: cell-based; settings: agonist; VFT domain; ND96 medium pH 7.4, 19 °C, 18 h; not an EC50

| Compound | minimal concentration to induce GVBD [1] | minimal concentration to induce GVBD [2] |
| --- | --- | --- |
| N=C(N)NCCC[C@H](N)C(=O)O [L-Arg] | 1 µM |  |
| N[C@@H](CS)C(=O)O [L-Cys] |  | 1 mM |
